Experimental data taken from patent US8710097B2, “Flavonoid dimers and methods of making and using such” (The Hong Kong Polytechnic University, priority 2006, dated 2014).

Tests used:
Ltrmdr1 = settings: literature; cited from earlier work
P388 cells = experiment: Doxorubicin accumulation; type: cell-based, murine
[1] = system: pentamidine-resistant L. enriettii LePentR50 promastigotes; experiment: microbe, parasite or virus in culture; settings: LePentR50; FIG. 18A
MDA435/LCC6 cells = experiment: Doxorubicin accumulation; type: cell-based, human; settings: LCC6, basal P-gp; dimers 10 μM, monomer 20 μM
Protocol: Doxorubicin accumulation. […] At confluence, culture medium was removed. 2 ml of fresh DMEM with modulators was added and cells were incubated for 30 min at 37° C. Doxorubicin (final concentration of 20 μM) was then added and incubated for 2 h at 37° C. The cells were then harvested by trypsinization.

MDA435/LCC6 MDR cells = experiment: Doxorubicin accumulation; type: cell-based, human; settings: LCC6 MDR; apigenin dimers 10 μM; 20 μM doxorubicin, 2 h
Protocol: Doxorubicin accumulation. 2.5 ml (10^5 cells/ml) MDA435/LCC6 (both parent and MDR subtype) cells were seeded in each well of 6-well plates. At confluence, culture medium was removed. 2 ml of fresh DMEM with modulators was added and cells were incubated for 30 min at 37° C. Doxorubicin (final concentration of 20 μM) was then added and incubated for 2 h at 37° C. The cells were then harvested by trypsinization.
For P388 (both parent and MDR subtype) cells, 1 ml (10^5 cells) confluent cells were aliquot into Eppendorf tube and pre-incubated with flavone dimers for 30 min at 37° C. Doxorubicin (final concentration of 10 μM) was then added and incubated for 2 h at 37° C. at a final concentration of 10 μM. The cell pellets were washed 3 times with cold PBS by using an Eppendorf micro-centrifuge and lysed with 0.3N HCL in 50% ethanol, and sonicated for 30s. After centrifugation at 10000 rpm/min for 3 min, the supernatant was saved. The fluorescence of doxorubicin was measured using a spectrofluorometer (λexcite=470 nm, λemit=585 nm).
In order to understand whether the modulating activity for various anticancer drugs by different dimers is due to their different ability to modulate P-gp mediated drug efflux, their effects on the accumulation of doxorubicin in both MDA435/LCC6 sensitive and resistant cells were investigated. Doxorubicin was a fluorescent drug substrate of P-gp and was used in this experiment to monitor the P-gp mediated drug efflux. Accumulation of doxorubicin in these cells was determined in the presence or absence of apigenin dimers (10 μM) and monomer (20 μM). Verapamil was used as a positive control.

Row | SMILES | modulation (inhibition of Ltrmdr1) compared with cyclosporine A or verapamil (Ltrmdr1) | doxorubicin accumulation in parent sensitive cells (P388 cells) | pentamidine sensitization [1] | accumulation of doxorubicin in LCC6 (MDA435/LCC6 cells) | enhancement of doxorubicin accumulation, folds of control (MDA435/LCC6 MDR cells)
1 | COc1ccc(-c2oc3c(CC=C(C)C)c(O)cc(O)c3c(=O)c2O)cc1 [8-dimethylallylkaempferide] | better modulator than either cyclosporine A or verapamil |  |  |  | 
2 | COc1ccc(CCN(C)CCCC(C#N)(c2ccc(OC)c(OC)c2)C(C)C)cc1OC (centres unmarked) [Verapamil, reference compound] |  | almost unaffected | less than half-fold sensitization | unaffected | 6.2 folds
